Here are results for 24 molecules from patent publication US20240208954A1, “OXADIAZOLE COMPOUND, PREPARATION METHOD THEREFOR, PHARMACEUTICAL COMPOSITION AND USE THEREOF” (SHANGHAI INSTITUTE OF MATERIA MEDICA, CHINESE ACADEMY OF …, priority 2020, published 2024).

The target of one assay is T1, S1PR1 (Homo sapiens, UniProt P21453).
T1 construct: host or cells: CHO-K1 co-expressing Ga15
The assay can be described thus: Agonistic activity test on S1P receptors, FLIPR, CHO-K1/Ga15/EDG1 cells. The format is cell-based. The note with it: CHO-K1/Ga15/EDG1 cells, FLIPR agonist mode, read-out: S1PR1 EC50. How it is done: (§1) Instrument: FLIPR™ TETRA (Molecular Device)
Experimental materials: CHO-K1/Ga15/EDG1 cells constructed by GenScript autonomously.
(§2) Sample processing: Before the experiment, the working solution with the corresponding concentration was prepared by diluting with GPCR dilution buffer.
(§3) After 18-20 hours, the cell culture plat was taken out and added with dye working solution, and then the plate was placed in a 37° C./5% CO2 incubator for 1 hour, and finally equilibrated at room temperature for 15 minutes. Positive agonist working solution was added, and RFU values were detected and recorded. […] The positive agonist working fluid was added to the cell culture plate at the 21st second. […] The antagonistic mode detection program, the overall detection time of the instrument was 120 seconds, and positive antagonist working solution was added to the cell culture plate at the 21st second.
(§4) Data processing: Raw data were obtained via ScreenWorks (version 3.1) and saved as *FMD files on the Kingsray computer network system. Data were collected and analyzed using Excel and GraphPad Prism 6 software programs. For each well, the average fluorescence intensity value from 1 to 20 seconds was used as the baseline, and the maximum fluorescence intensity value from 21 to 120 seconds minus the minimum fluorescence intensity value from 21 to 120 seconds was the relative fluorescence intensity value (ARFU), from which the percentage activation or inhibition can be calculated based on the following equation.
(§5) % Activation Rate=(ΔRFUCompound-ΔRFUBackground)/(ΔRFUAgonist control-ΔRFUBackground)×100%
(§6) The data was analyzed using GraphPad Prism 6 with a four-parameter equation to calculate the EC50 and IC50 values. The four-parameter equation was as follows: y=Bottom+(Top-Bottom)/(1+10^((LogEC50/IC50-X)*HillSlope)), wherein X is the Log value of the concentration and Y was the inhibition rate.

The target in another assay is S1PR3 (Homo sapiens, UniProt Q99500). Description: Agonistic activity test on S1P receptors, FLIPR. Format: cell-based. The note with it: FLIPR agonist mode; read-out: S1PR3 EC50. How it is done:
as §1, §2, §3, §4, §5, §6

Usually EC50 stands for the concentration that produces a half-maximal response.

Structures are written as SMILES. Read-outs that look alike come from different tables or passages of the source.

Sequence of S1PR3 (Q99500 whole entry, species assumed): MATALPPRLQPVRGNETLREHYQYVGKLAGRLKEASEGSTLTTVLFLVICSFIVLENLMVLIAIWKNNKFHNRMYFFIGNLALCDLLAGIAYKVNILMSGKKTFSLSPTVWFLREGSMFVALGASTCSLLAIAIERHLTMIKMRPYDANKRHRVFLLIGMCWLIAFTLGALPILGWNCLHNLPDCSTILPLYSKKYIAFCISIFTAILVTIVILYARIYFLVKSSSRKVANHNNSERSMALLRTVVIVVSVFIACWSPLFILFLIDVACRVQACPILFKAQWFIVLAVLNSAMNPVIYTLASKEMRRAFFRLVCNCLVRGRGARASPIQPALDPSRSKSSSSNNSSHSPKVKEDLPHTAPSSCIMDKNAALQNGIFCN
T1 sequence (P21453 whole entry): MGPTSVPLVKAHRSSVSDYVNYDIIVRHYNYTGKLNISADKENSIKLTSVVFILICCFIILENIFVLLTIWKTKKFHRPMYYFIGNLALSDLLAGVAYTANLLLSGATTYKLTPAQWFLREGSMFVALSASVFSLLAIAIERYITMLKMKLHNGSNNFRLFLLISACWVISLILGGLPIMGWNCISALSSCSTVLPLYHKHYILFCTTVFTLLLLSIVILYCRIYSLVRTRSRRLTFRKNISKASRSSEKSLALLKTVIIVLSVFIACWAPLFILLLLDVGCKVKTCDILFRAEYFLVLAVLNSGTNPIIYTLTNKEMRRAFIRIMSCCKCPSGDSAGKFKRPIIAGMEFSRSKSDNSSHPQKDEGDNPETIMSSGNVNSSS

Take `CC(C)Oc1ccc(-c2nc(-c3ccc(CN4CC(C(=O)O)C4)c4ccccc34)no2)cc1Cl` [Compound A10, 1-((4-(5-(3-chloro-4-isopropoxyphenyl)-1,2,4-oxadiazol-3-yl)naphthalen-1-yl)methyl) azetidine-3-carboxylic acid hydrochloric acid]: the EC50 at S1PR1 is 0.699 µM; at S1PR3, > 10000 nM.

Regarding `CC(C)Oc1ccc(-c2nc(-c3ccc(CN4CC(C(=O)O)C4)c4ccccc34)no2)cc1Br` [Compound A11, 1-((4-(5-(3-bromo-4-isopropoxyphenyl)-1,2,4-oxadiazol-3-yl)naphthalen-1-yl)methyl) azetidine-3-carboxylic acid hydrochloric acid], the 50% effective concentration (EC50) on S1PR1 was 1.37 µM; at S1PR3, > 10000 nM.

Regarding `CC(C)Oc1ccc(-c2nc(-c3ccc(CN4CC(C(=O)O)C4)c4ccccc34)no2)cc1C(F)(F)F` [Compound A12, 1-((4-(5-(4-isopropoxy-3-(trifluoromethyl)phenyl)-1,2,4-oxadiazol-3-yl)naphthalen-1-yl)methyl) azetidine-3-carboxylic acid hydrochloric acid], the concentration giving a half-maximal response (EC50) on S1PR1 was 0.358 µM; at S1PR3, > 10000 nM.

`COc1cc(-c2nc(-c3ccc(CN4CC(C(=O)O)C4)c4ccccc34)no2)ccc1OC(C)C` [Compound A13, 1-((4-(5-(4-isopropoxy-3-methoxyphenyl)-1,2,4-oxadiazol-3-yl)naphthalen-1-yl)methyl) azetidine-3-carboxylic acid hydrochloric acid]: the EC50 is 1.55 µM at S1PR1 and > 10000 nM on S1PR3.

As to `CC(C)Oc1ccc(-c2nc(-c3ccc(CN4CC(C(=O)O)C4)c4ccccc34)no2)cc1` [Compound A14, 1-((4-(5-(4-isopropoxyphenyl)-1,2,4-oxadiazol-3-yl)naphthalen-1-yl)methyl) azetidine-3-carboxylic acid hydrochloric acid], the EC50 is 1.67 µM on S1PR1 and > 10000 nM at S1PR3.

For the molecule `CC(C)(C)Oc1ccc(-c2nc(-c3ccc(CN4CC(C(=O)O)C4)c4ccccc34)no2)cc1` [Compound A15, 1-((4-(5-(4-(tert-butoxy)phenyl)-1,2,4-oxadiazol-3-yl)naphthalen-1-yl)methyl) azetidine-3-carboxylic acid hydrochloric acid], the EC50 on S1PR1 is 1.23 µM; on S1PR3, > 10000 nM.

For the molecule `COc1ccc(-c2nc(-c3ccc(CN4CC(C(=O)O)C4)c4ccccc34)no2)cc1` [Compound A16, 1-((4-(5-(4-methoxyphenyl)-1,2,4-oxadiazol-3-yl)naphthalen-1-yl)methyl) azetidine-3-carboxylic acid hydrochloric acid], the EC50 at S1PR1 is 1.17 µM; at S1PR3, > 10000 nM.

For `CCCOc1ccc(-c2nc(-c3ccc(CN4CC(C(=O)O)C4)c4ccccc34)no2)cc1` [Compound A17, 1-((4-(5-(4-propoxyphenyl)-1,2,4-oxadiazol-3-yl)naphthalen-1-yl)methyl) azetidine-3-carboxylic acid hydrochloric acid], the EC50 at S1PR1 (cells printed in μM) was > 10 µM; at S1PR3 it was > 10000 nM.

Turning to `O=C(O)C1CN(Cc2ccc(-c3noc(-c4ccc(OCc5ccccc5)cc4)n3)c3ccccc23)C1` [Compound A18, 1-((4-(5-(4-(benzyloxy)phenyl)-1,2,4-oxadiazol-3-yl)naphthalen-1-yl)methyl) azetidine-3-carboxylic acid hydrochloric acid], the concentration giving a half-maximal response (EC50) on S1PR1 (cells printed in μM) was > 10 µM; on S1PR3, > 10000 nM.

`O=C(O)C1CN(Cc2ccc(-c3noc(-c4ccc(OC(F)(F)F)cc4)n3)c3ccccc23)C1` [Compound A19, 1-((4-(5-(4-(trifluoromethoxy)phenyl)-1,2,4-oxadiazol-3-yl)naphthalen-1-yl)methyl) azetidine-3-carboxylic acid hydrochloric acid]: the EC50 is 1.13 µM on S1PR1 and > 10000 nM on S1PR3.

For the molecule `CC(C)c1ccc(-c2nc(-c3ccc(CN4CC(C(=O)O)C4)c4ccccc34)no2)cc1` [Compound A20, 1-((4-(5-(4-isopropylphenyl)-1,2,4-oxadiazol-3-yl)naphthalen-1-yl)methyl) azetidine-3-carboxylic acid hydrochloric acid], the concentration for a half-maximal effect (EC50) on S1PR1 was 1.05 µM; on S1PR3 it was > 10000 nM.

`CCCc1ccc(-c2nc(-c3ccc(CN4CC(C(=O)O)C4)c4ccccc34)no2)cc1` [Compound A21, 1-((4-(5-(4-propylphenyl)-1,2,4-oxadiazol-3-yl)naphthalen-1-yl)methyl) azetidine-3-carboxylic acid hydrochloric acid]: the half-maximal effective concentration (EC50) was 1.27 µM on S1PR1 and > 10000 nM on S1PR3.

With `N#Cc1ccc(-c2nc(-c3ccc(CN4CC(C(=O)O)C4)c4ccccc34)no2)cc1` [Compound A22, 1-((4-(5-(4-cyanophenyl)-1,2,4-oxadiazol-3-yl)naphthalen-1-yl)methyl) azetidine-3-carboxylic acid hydrochloric acid], the 50% effective concentration (EC50) at S1PR1 was 1.13 µM; on S1PR3 it was > 10000 nM.

As for `O=C(O)C1CN(Cc2ccc(-c3noc(-c4ccc(F)cc4)n3)c3ccccc23)C1` [Compound A23, 1-((4-(5-(4-fluorophenyl)-1,2,4-oxadiazol-3-yl)naphthalen-1-yl)methyl) azetidine-3-carboxylic acid hydrochloric acid], the values for the EC50 at S1PR1 and on S1PR3 were 1.96 µM and > 10000 nM, respectively.

Consider `N#Cc1cccc(-c2nc(-c3ccc(CN4CC(C(=O)O)C4)c4ccccc34)no2)c1` [Compound A24, 1-((4-(5-(3-cyanophenyl)-1,2,4-oxadiazol-3-yl)naphthalen-1-yl)methyl) azetidine-3-carboxylic acid hydrochloric acid], for which the EC50 at S1PR1 is 0.685 µM; at S1PR3, > 10000 nM.

Consider `O=C(O)C1CN(Cc2ccc(-c3noc(-c4cccc(F)c4)n3)c3ccccc23)C1` [Compound A25, 1-((4-(5-(3-fluorophenyl)-1,2,4-oxadiazol-3-yl)naphthalen-1-yl)methyl) azetidine-3-carboxylic acid hydrochloric acid], for which the EC50 at S1PR1 was 1.06 µM; at S1PR3, > 10000 nM.

Take `O=C(O)C1CN(Cc2ccc(-c3noc(-c4ccccc4)n3)c3ccccc23)C1` [Compound A26, 1-((4-(5-phenyl-1,2,4-oxadiazol-3-yl)naphthalen-1-yl)methyl) azetidine-3-carboxylic acid hydrochloric acid]: the concentration giving a half-maximal response (EC50) was 0.749 µM on S1PR1 and > 10000 nM on S1PR3.

With `O=C(O)C1CN(Cc2ccc(-c3noc(-c4ccncc4)n3)c3ccccc23)C1` [Compound A27, 1-((4-(5-(pyridin-4-yl)-1,2,4-oxadiazol-3-yl)naphthalen-1-yl)methyl) azetidine-3-carboxylic acid hydrochloric acid], the results for the EC50 at S1PR1 (cells printed in μM) and on S1PR3 were > 10 µM and > 10000 nM, respectively.

With `O=C(O)C1CN(Cc2ccc(-c3noc(-c4cccnc4)n3)c3ccccc23)C1` [Compound A28, 1-((4-(5-(pyridin-3-yl)-1,2,4-oxadiazol-3-yl)naphthalen-1-yl)methyl) azetidine-3-carboxylic acid hydrochloric acid], the half-maximal effective concentration (EC50) at S1PR1 was 1.18 µM; at S1PR3 it was > 10000 nM.

Turning to `O=C(O)C1CN(Cc2ccc(-c3noc(-c4ccccn4)n3)c3ccccc23)C1` [Compound A29, 1-((4-(5-(pyridin-2-yl)-1,2,4-oxadiazol-3-yl)naphthalen-1-yl)methyl) azetidine-3-carboxylic acid hydrochloric acid], the concentration for a half-maximal effect (EC50) is 0.993 µM on S1PR1 and > 10000 nM on S1PR3.

Regarding `O=C(O)C1CN(Cc2ccc(-c3noc(-c4ccc5c(c4)OCO5)n3)c3ccccc23)C1` [Compound A31], the half-maximal effective concentration (EC50) on S1PR1 was 1.3 µM; at S1PR3, > 10000 nM.

For `O=C(O)C1CN(Cc2ccc(-c3noc(-c4ccc5c(c4)OCCO5)n3)c3ccccc23)C1` [Compound A32, 1-((4-(5-(2,3-dihydrobenzo[b][1,4]dioxin-6-yl)-1,2,4-oxadiazol-3-yl)naphthalen-1-yl)methyl) azetidine-3-carboxylic acid hydrochloric acid], the EC50 was 0.617 µM on S1PR1 and > 10000 nM on S1PR3.

Take `O=C(O)C1CN(Cc2ccc(-c3noc(-c4cnc5ccccc5c4)n3)c3ccccc23)C1` [Compound A33, 1-((4-(5-(quinolin-3-yl)-1,2,4-oxadiazol-3-yl)naphthalen-1-yl)methyl) azetidine-3-carboxylic acid hydrochloric acid]: the EC50 on S1PR1 was 0.933 µM; on S1PR3, > 10000 nM.

On to `O=C(O)C1CN(Cc2ccc(-c3noc(-c4cnc5ccccc5n4)n3)c3ccccc23)C1` [Compound A34, 1-((4-(5-(quinoxaline-2-yl)-1,2,4-oxadiazol-3-yl)naphthalen-1-yl)methyl) azetidine-3-carboxylic acid hydrochloric acid], for which the results for the EC50 on S1PR1 and at S1PR3 were 0.739 µM and > 10000 nM, respectively.
